Measured values reported in patent EP1464341B1, “Ubiquinone-containing water-soluble formulation for ophthalmic use” (Visufarma S.p.A, priority 2003, dated 2004).
Values joined by “and” are separate entries in the source; they are usually repeats but may differ in a detail not shown here. Identical values can stand only once.

Key:
[1] = cited from earlier work
[2] = Pharmacokinetic incorporation of the hydrophilic collyrium in rabbit cornea, retina and plasma (CoQ10 concentration); type: in vivo; settings: for RETINA Q10-treated, Average / RETINA Q10-treated: retina of treated eye
Description: Assessment of the pharmacokinetic activity of incorporation of the hydrophilic collyrium in rabbit cornea, retina and plasma.
a) The hydrophilic collyrium was assayed on a first lot of three rabbits by instilling Coenzyme Q10 in the right eye and an equivalent excipient free from Q10 and vitamin E TPQS in the contralateral (basal) eye. At + 15 min from the collyrium instillation, CoQ10 concentration in the treated eye and in the other (basal) eye was analysed. The analysis was performed on the retina, the cornea and the plasma of the two eyes.
b) .A second lot of six rabbits was subjected to an analogous assay in which the waiting time was prolonged up to 30 min.

[3] = tested on: superoxide anion generated by human PMNs (polymorphonucleates); settings: human PMNs suitably stimulated; Ferrocytochrome C method
[4] = treated minus basal, 15 min, average of 3 rabbits
[5] = treated vs basal, 15 min, average of 3 rabbits

## COC1=C(OC)C(=O)C(C/C=C(\C)CC/C=C(\C)CC/C=C(\C)CC/C=C(\C)CC/C=C(\C)CC/C=C(\C)CC/C=C(\C)CC/C=C(\C)CC/C=C(\C)CCC=C(C)C)=C(C)C1=O [Formulation Q10, Ubiquinone Q10]
[1]
  solubility in water: totally insoluble in water
[2]; at both times considered (15 min and 30 min)
  incorporation in the cornea: scarce
[2]; cornea of treated eye, 15 min, average of 3 rabbits
  CORNEA Q10-treated, Average: 1004 pmoles/g
[2]; cornea of treated eye, 15 min, individual rabbits N. 15-17
  CORNEA Q10-treated: 887 pmoles/g and 955 pmoles/g and 1170 pmoles/g
[2]; cornea, treated minus basal, 15 min, average of 3 rabbits
  CORNEA Difference, Average: 74 pmol/g
[2]; cornea, treated minus basal, 15 min, individual rabbits
  CORNEA Difference: -34 pmol/g and 377 pmol/g and -150 pmol/g
[2]; cornea, treated vs basal, 15 min, average of 3 rabbits
  CORNEA %Increase, Average: 7%
[2]; cornea, treated vs basal, 15 min, individual rabbits
  CORNEA %Increase: -3% and 65% and -11%
[2]; cornea, treated vs basal, 30 min, average of 6 rabbits
  CORNEA %Increase, Average: 4%
[2]; cornea, treated vs basal, 30 min, individual rabbits
  CORNEA %Increase: -17% and 16% (2×) and 24% and -7% and -16%
[2]; 15 min, average of 3 rabbits
  PLASMA Q10-treated, Average: 74 pmoles/g
  RETINA Q10-treated, Average: 754 pmoles/g
[2]; 15 min, individual rabbits N. 15-17
  PLASMA Q10-treated: 62 pmoles/g and 83 pmoles/g and 78 pmoles/g
[2]; 30 min, average of 6 rabbits
  PLASMA Q10-treated, Average: 83 pmoles/g
[2]; 30 min, individual rabbits N. 18-23
  PLASMA Q10-treated: 79 pmoles/g and 105 pmoles/g and 106 pmoles/g and 53 pmoles/g and 81 pmoles/g and 73 pmoles/g
[2]; [4]
  PLASMA Difference, Average: 10 pmol/g
  RETINA Difference, Average: 5 pmol/g
[2]; treated minus basal, 15 min, individual rabbits
  PLASMA Difference: 8 pmol/g and 6 pmol/g and 17 pmol/g
[2]; treated minus basal, 30 min, average of 6 rabbits
  PLASMA Difference, Average: 13 pmol/g
[2]; treated minus basal, 30 min, individual rabbits
  PLASMA Difference: 14 pmoles/g (2×) and 7 pmoles/g and 23 pmoles/g and 10 pmoles/g and 8 pmoles/g
[2]; [5]
  PLASMA %Increase, Average: 16%
  RETINA %Increase, Average: 1%
[2]; treated vs basal, 15 min, individual rabbits
  PLASMA %Increase: 15% and 8% and 28%
[2]; treated vs basal, 30 min, average of 6 rabbits
  PLASMA %Increase, Average: 18%
[2]; treated vs basal, 30 min, individual rabbits
  PLASMA %Increase: 21% (2×) and 7% and 28% and 23% and 12%
[2]; 15 min after instillation, individual rabbits N. 15-17
  RETINA Q10-treated: 787 pmoles/g and 632 pmoles/g and 843 pmoles/g
[2]; second lot (30 min; head prints 15 min), average of 6 rabbits
  RETINA Q10-treated, Average: 1084.3 pmoles/g
[2]; second lot (waiting time 30 min; head prints 15 min), individual rabbits N. 18-23
  RETINA Q10-treated: 1006 pmoles/g and 1394 pmoles/g and 1037 pmoles/g and 725 pmoles/g and 975 pmoles/g and 1369 pmoles/g
[2]; treated minus basal (contralateral) eye, 15 min, individual rabbits
  RETINA Difference: -82 pmol/g and 14 pmol/g and 83 pmol/g
[2]; treated minus basal, second lot (30 min; head prints 15 min), average of 6 rabbits
  RETINA Difference, Average: 138.8 pmol/g
[2]; treated minus basal, second lot (30 min; head prints 15 min), individual rabbits
  RETINA Difference: 177 pmol/g and 57 pmol/g and 106 pmol/g and 74 pmol/g and 211 pmol/g and 208 pmol/g
[2]; treated vs basal (contralateral eye), second lot (30 min; head prints 15 min), average of 6 rabbits
  RETINA %Increase, Average: 15%
[2]; treated vs basal eye, 15 min, individual rabbits
  RETINA % Increase: -9% and 2% and 11%
[2]; treated vs basal, second lot (30 min; head prints 15 min), individual rabbits
  RETINA % Increase: 21% and 4% and 11% (2×) and 28% and 18%

## d-Alpha-tocopheryl polyethylene glycol 1000-succinate [vitamin E TPGS]
[3]
  scavenging action with regards to the superoxide anion: scavenging action
